From the Bradley open melting point set (2014) come the findings set out here.

Each structure is given as a SMILES string. Values joined by “and” are separate entries in the source; they are usually repeats but may differ in a detail not shown here. Equal entries are not always repeated.

By melting point is commonly meant the temperature, or range, at which the solid turns liquid. The compound `CC(O)CC(C)(C)O` (stereo unspecified) [2-methyl-2,4-pentanediol] displayed a melting point of -40 °C. In turn, `Clc1ccc2ncccc2c1` [6-chloroquinoline] displayed a melting point of 35 °C. Consider `c1cc2c3c(cccc3c1)CC2` [1,2-Dihydroacenaphthylene], for which the melting point stood at 95 °C. As for `O=Cc1cccc(C(=O)O)c1` [m-formyl_benzoic_acid], the figure is 175 °C.

`CN(C)c1ccc(/N=N/c2ccccc2C(=O)O)cc1` [methyl red] showed a melting point of 181 °C. As for `CCOC(=O)CC(C)=O` [ethyl acetoacetate], the figure is -43 °C; as for `CCOC(=O)c1ccc(N=C=S)cc1` [4-(ethoxycarbonyl)phenyl isothiocyanate], 54 °C.

In the case of `ClC(Br)Br` [chlorodibromomethane], the melting point was -22 °C. As for `COc1ccc(O)cc1` [4-methoxyphenol], the figure is 56 °C and 57 °C; as for `O=P(O)(O)O` [orthophosphoric acid], 20 °C. In turn, `C=C[C@H]1CN2CC[C@H]1C[C@@H]2[C@@H](O)c1ccnc2ccc(OC)cc12` [Quinidine] came in with a melting point of 174 °C.

`NC(=O)c1cnccn1` [Pyrazinamide] yielded a melting point of 189 °C. The result for `Cc1cc(C(C)(C)C)c(O)c(C(C)(C)C)c1` [2,6-di-tert-butyl-4-methylphenol] reads 71 °C; that for `CC(C)CCCC(C)C1CCC2C3CCC45CCC(=O)C4C5(C)C3CCC12C` (stereo unspecified) [1,5-cyclocholestan-2-one], 164 °C; that for `CCC(Br)CBr` (stereo unspecified) [1,2-dibromobutane], -65 °C.

In turn, `O=C(O)Cc1ccccc1Oc1ccc(Cl)cc1Cl` [fenclofenac] came in with a melting point of 135 °C. As for `CCCCCC=CCC=CCCCCCCCC(=O)O` (stereo in doubt) [linoleic acid], the figure is -8.5 °C. On to `Brc1c(Br)c(Br)c(Br)c(Br)c1Br` [Hexabromobenzene], for which the melting point is 306 °C. As for `O=C(O)CCC(=O)c1cccs1` [4-oxo-4-(2-thienyl)butyric acid], the figure is 119 °C; as for `CNC[C@H](O)c1ccc(O)c(O)c1` [Epinephrine], 212 °C; as for `CC(C)(C)C(=O)O` [2,2-dimethylpropanoic_acid], 36 °C. The result for `Cc1cc(C)n(C(N)=O)n1` [3,5-dimethyl-1h-pyrazole-1-carboxamide] reads 113 °C; that for `Cc1ccc(Cl)c([N+](=O)[O-])c1` [4-chloro-3-nitrotoluene], 7 °C; that for `O=C(O)c1cc2ccccc2s1` [benzo[b]thiophene-2-carboxylic acid], 239 °C. As for `COC(=O)c1ccc(O)cc1` [methylparaben], the figure is 131 °C; as for `OB(O)c1ccccc1C(F)(F)F` [2-(trifluoromethyl)benzeneboronic acid], 109 °C. Turning to `Cn1c(/C(C#N)=C/c2ccc(F)cc2)nc2ccccc21`, the melting point was 134 °C. `O=C(O)CCCCCCCCC(=O)O` [Sebacic acid] showed a melting point of 134 °C. Turning to `CCCCc1ccc(B(O)O)cc1` [4-n-butylbenzeneboronic acid], the melting point amounted to 105 °C.

As to `CCOc1ccccc1` [phenetole], the melting point is -30 °C. As for `CC(=O)c1ccc2c(c1)CCCC2` [6-acetyl-1,2,3,4-tetrahydronaphthalene], the figure is -21 °C; as for `CC(C)=O` [acetone], -94 °C. As for `C1C2CC3CC1CC(C2)C3` [adamantane], the figure is 268 °C; as for `Cc1nc2ccccc2c(=O)n1-c1ccccc1Cl` [mecloqualone], 126 °C; as for `C=CCC` [1-butene], -185 °C.

`Cc1c[nH]c(C)n1` [2,4-dimethylimidazole] showed a melting point of 86 °C.

Take `O=C(O)c1cccc([N+](=O)[O-])c1` [3-Nitrobenzoic acid]: the melting point turned out to be 142 °C. The compound `O=C(O)c1ccccc1Br` [2-bromobenzoic acid] registered a melting point of 149 °C.

Compound `OCCCCCCCCCCc1ccccc1` [10-Phenyldecan-1-ol] had a melting point of 36 °C.

`Nc1ccc(S(=O)(=O)Nc2nccs2)cc1` [sulfathiazole] came in with a melting point of 202 °C. `Cc1ccc(C)n1-c1ccc(C(F)(F)F)cc1` [OSM-S-27] had a melting point of 71.5 °C. The compound `CCCCCOc1ccc(/N=N/c2ccc(CCCC)cc2)cc1` [(E)-1-(4-butylphenyl)-2-[4-(pentyloxy)phenyl]diazene] yielded a melting point of 42 °C. Compound `O=C(O)[C@H](O)[C@@H](O)C(=O)O` [(2R,3R)-2,3-Dihydroxysuccinic acid] came in with a melting point of 171 °C. `Nc1ccc(/C=C/c2ccc([N+](=O)[O-])cc2)c([N+](=O)[O-])c1` [3-nitro-4-[(E)-2-(4-nitrophenyl)ethenyl]aniline]: the melting point is 202 °C. As for `C/C(CCc1oc2ccc(Cl)cc2c1-c1ccc(C)o1)=N\O`, the figure is 115 °C; as for `Clc1ccc(Cl)c(-c2cc(Cl)c(Cl)cc2Cl)c1` [PCB-101], 77 °C. `ClC(Cl)=C/C3C(C(=O)OCc2cccc(Oc1ccccc1)c2)C3(C)C` (stereo unspecified) [Permethrin] returned a melting point of 34 °C. With `C/C(=C\C=C\c1ccccc1)C(=O)OC(=O)/C(C)=C/C=C/c1ccccc1` [(2E,4E)-2-methyl-5-phenylpenta-2,4-dienoic anhydride], the melting point came to 113 °C. As for `O=C(O)C1CCCC1` [cyclopentanecarboxylic acid], the figure is 3.5 °C; as for `O=C1CCOc2ccccc21` [4-chromanone], 38 °C. As for `Cc1c([N+](=O)[O-])cc[n+]([O-])c1C` [2,3-dimethyl-4-nitropyridine n-oxide], the figure is 93 °C; as for `O=C(O)C1CCCCC1` [cyclohexanecarboxylic acid], 30 °C; as for `C=CC(=O)OC` [methyl_acrylate], -75 °C. For `CCCCOC(=O)c1ccc(N)cc1` [butamben], the melting point stood at 58 °C.

The compound `O=C[C@@H](O)[C@H](O)[C@@H](O)[C@@H](O)CO` [L-Glucose] came in with a melting point of 150 °C. `CB(C)Br` [bromodimethylborane]: the melting point was -129 °C. `O=[N+]([O-])c1cc(Br)ccc1Br` [1,4-dibromo-2-nitrobenzene] had a melting point of 84 °C.

`O=[N+]([O-])c1cccc2c(/C=N/c3ccccc3)cccc12` [N-[(1E)-(5-nitronaphthalen-1-yl)methylidene]aniline]: the melting point is 84 °C. In the case of `COc1ccc(C(=O)Cc2ccccc2)cc1OC` [1-(3,4-Dimethoxyphenyl)-2-phenylethanone], the melting point came out at 73 °C. The result for `COC(=O)c1ccccc1N` [Methyl 2-aminobenzoate] reads 24 °C; that for `COC(F)(F)C(Cl)Cl` [Methoxyflurane], -35 °C. The result for `CN1CCC2=C(C1)C(c1ccccc1)c1ccccc12` (stereo unspecified) [phenindamine] reads 91 °C; that for `O=C(O)CCCCCCCCCCCCCCC(=O)O` [Hexadecanedioic acid], 125 °C; that for `c1c[nH]nn1` [1,2,3-triazole], 24 °C. With `Cc1c(N)cccc1N` [2,6-diaminotoluene], the melting point is 97 °C. As for `c1ccc(CN(CC2=NCCN2)c2ccccc2)cc1` [antazoline], the figure is 120 °C; as for `CC(=O)c1ccc(F)c(Cl)c1` [3'-chloro-4'-fluoroacetophenone], 39 °C. Turning to `O=C(N[C@H](Cc1ccccc1)C(=O)O)OCc1ccccc1` [N-benzyloxycarbonyl-D-phenylalanine], the melting point came to 86 °C. `CC(Cl)CCl` (stereo unspecified) [1,2-dichloropropane] displayed a melting point of -100 °C. The result for `C[C@]12CC[C@@H]3c4ccc(O)cc4CC[C@H]3[C@@H]1CC[C@@H]2O` [Estradiol] reads 176 °C; that for `O=[N+]([O-])c1ccccc1CO` [2-nitrobenzyl alcohol], 72 °C; that for `Cc1ccc(Cl)cc1[N+](=O)[O-]` [4-chloro-2-nitrotoluene], 39 °C.

Turning to `O=C(O)c1ccnc(F)c1` [2-fluoropyridine-4-carboxylic acid], the melting point came out at 346 °C. The result for `ClCCBr` [1-bromo-2-chloroethane] reads -17 °C; that for `Cc1ccc(cc1NC(=O)/C=CC(=O)O)Cl` [N-(5-chloro-2-methylphenyl)maleamic acid], 120 °C; that for `CCC1(c2ccccc2)NC(=O)N(C)C1=O` (stereo unspecified) [mephenytoin], 136 °C. As for `Cc1cccc(Cl)c1Cl` [2,3-dichlorotoluene], the figure is 6 °C; as for `Cc1ccccc1C(=O)O` [2-Methylbenzoic acid], 108 °C; as for `COc1ccc(-c2csc(/C(C#N)=C/c3ccc(Cl)cc3Cl)n2)cc1`, 143 °C. Take `Cc1cc(C(=O)NNCc2ccccc2)no1` [isocarboxazid]: the melting point stood at 106 °C.

`Cl[C@H]1[C@H](Cl)[C@@H](Cl)[C@H](Cl)[C@H](Cl)[C@H]1Cl` [a-hexachlorocyclohexane]: the melting point was 159 °C. `CCCCNC(=S)NCCCC` [N,N'-di-n-butylthiourea] returned a melting point of 66 °C. As for `COC(=O)c1ccc(O)cc1` [methyl-p-hydroxybenzoate], the melting point was found to be 131 °C. The result for `c1ccc(C23CCN(CC2)CC3)cc1` [4-phenylquinuclidine] reads 124 °C; that for `CC(=O)c1ccc(C)cc1` [4'-methylacetophenone], -19 °C. The compound `O=[N+]([O-])c1ccccc1Br` [o-bromonitrobenzene] yielded a melting point of 43 °C. The result for `Nc1ccc(Br)cc1` [4-Bromoaniline] reads 66 °C. In the case of `Fc1ccc(F)c(F)c1F` [1,2,3,4-tetrafluorobenzene], the melting point was -42 °C. As for `CC(C)(C)OOC(C)(C)C` [Di-tert-butyl peroxide], the melting point was -40 °C. As for `CCCCCCCCC=O` [Nonanal], the figure is -18 °C; as for `COC(=O)c1cc(Cl)ccc1N` [methyl 2-amino-5-chlorobenzoate], 69 °C.
